# According to ChEMBL document CHEMBL1201862, “PubChem BioAssay data set” (2004):
#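 Grown in 96-well plates, cells were treated for 48 hours with each compound at five concentrations. Insufficient inhibition: endpoint recorded as highest concentration tested. The concentration for 50% growth inhibition is given as GI50.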 Calls of active or inactive are those of the source. Cut-off read from the data, not from the text of the source: active = GI50 up to about 1.1 µM and inactive = higher.
# Legend:
# Experiment in all cases: DTP human tumour cell line panel, 48 h
# SK-MEL-5 = test system: SK-MEL-5
# CAKI-1 = test system: CAKI-1
# A498 = test system: A498
# MDA-N = test system: MDA-N
# RPMI-8226 = test system: RPMI-8226
# 786-0 = test system: 786-0
# UACC-257 = test system: UACC-257
# SNB-75 = test system: SNB-75
# TK-10 = test system: TK-10
# NCI-H23 = test system: NCI-H23
# HCT-116 = test system: HCT-116
# OVCAR-8 = test system: OVCAR-8
# SR = test system: SR
# UO-31 = test system: UO-31
# SN12C = test system: SN12C
# HCC 2998 = test system: HCC 2998
# U-251 = test system: U-251
# SK-MEL-28 = test system: SK-MEL-28
# SF-539 = test system: SF-539
# NCI-H460 = test system: NCI-H460
Structure (SMILES),GI50 (SK-MEL-5),GI50 (CAKI-1),GI50 (A498),GI50 (MDA-N),GI50 (RPMI-8226),GI50 (786-0),GI50 (UACC-257),GI50 (SNB-75),GI50 (TK-10),GI50 (NCI-H23),GI50 (HCT-116),GI50 (OVCAR-8),GI50 (SR),GI50 (UO-31),GI50 (SN12C),GI50 (HCC 2998),GI50 (U-251),GI50 (SK-MEL-28),GI50 (SF-539),GI50 (NCI-H460)
CC(=O)n1nc(-c2ccccc2)n(/N=C/c2ccc([N+](=O)[O-])cc2)c1=O,> 100 µM (inactive),> 100 µM (inactive),> 100 µM (inactive),> 100 µM (inactive),> 100 µM (inactive),> 100 µM (inactive),> 100 µM (inactive),> 100 µM (inactive),> 100 µM (inactive),> 100 µM (inactive),> 100 µM (inactive),98.2 µM (inactive),> 100 µM (inactive),> 100 µM (inactive),> 100 µM (inactive),> 100 µM (inactive),> 100 µM (inactive),> 100 µM (inactive),> 100 µM (inactive),> 100 µM (inactive)
Clc1ccc(-c2c(C3=NCCCN3)nnn2-c2ccc(Cl)cc2)cc1,17.7 µM (inactive),60.1 µM (inactive),29.4 µM (inactive),19.1 µM (inactive),31.4 µM (inactive),40.9 µM (inactive),22.3 µM (inactive),29.8 µM (inactive),40 µM (inactive),> 79.1 µM (inactive),28.9 µM (inactive),> 70.3 µM (inactive),15.7 µM (inactive),39.1 µM (inactive),64 µM (inactive),18.2 µM (inactive),49.8 µM (inactive),17.1 µM (inactive),31.4 µM (inactive),40.9 µM (inactive)
O=C1C(=C(I)I)c2ccccc2-c2ccccc21,5.37 µM (inactive),2.82 µM (inactive),16.6 µM (inactive),2 µM (inactive),0.53 µM (active),2.07 µM (inactive),2.1 µM (inactive),2.58 µM (inactive),1.88 µM (inactive),5.07 µM (inactive),2.32 µM (inactive),2.59 µM (inactive),2.33 µM (inactive),2.1 µM (inactive),2.05 µM (inactive),2.51 µM (inactive),5.45 µM (inactive),2.59 µM (inactive),1.34 µM (inactive),14.6 µM (inactive)
COC(=O)C(C)(/N=C/c1ccccc1)c1ccccc1 (stereo not given),> 100 µM (inactive),> 100 µM (inactive),> 100 µM (inactive),> 100 µM (inactive),> 100 µM (inactive),> 100 µM (inactive),> 100 µM (inactive),> 100 µM (inactive),> 100 µM (inactive),> 100 µM (inactive),> 100 µM (inactive),> 100 µM (inactive),> 100 µM (inactive),> 100 µM (inactive),> 100 µM (inactive),> 100 µM (inactive),> 100 µM (inactive),> 100 µM (inactive),> 100 µM (inactive),> 100 µM (inactive)
CCOP(=O)(OCC)C(Nc1cccc(F)c1)c1ccccc1 (stereo not given),42.2 µM (inactive),> 100 µM (inactive),> 100 µM (inactive),> 100 µM (inactive),29.7 µM (inactive),> 100 µM (inactive),45.1 µM (inactive),20.7 µM (inactive),> 100 µM (inactive),> 100 µM (inactive),44.1 µM (inactive),62.2 µM (inactive),38.9 µM (inactive),44.8 µM (inactive),75.9 µM (inactive),66.1 µM (inactive),74.1 µM (inactive),> 100 µM (inactive),> 100 µM (inactive),43.9 µM (inactive)
CC1CN=C(Nc2ccc(F)cc2F)S1 (stereo not given),> 100 µM (inactive),> 100 µM (inactive),> 100 µM (inactive),> 100 µM (inactive),> 100 µM (inactive),> 100 µM (inactive),> 100 µM (inactive),70.3 µM (inactive),> 100 µM (inactive),> 100 µM (inactive),> 100 µM (inactive),> 100 µM (inactive),> 100 µM (inactive),> 100 µM (inactive),> 100 µM (inactive),> 100 µM (inactive),> 100 µM (inactive),> 100 µM (inactive),> 100 µM (inactive),> 100 µM (inactive)
